Laboratory results published in patent US20200121699A1, “COMBINATION THERAPIES COMPRISING IMMUNO-ONCOLOGY AGENTS AND BELINOSTAT” (ONXEO, priority 2016, published 2020).

Legend:
4T1 breast cancer cells = assay: Orthotopic 4T1 breast cancer mouse model; type: in vivo, Balb/C mouse; conditions: 4T1 in mammary fat gland; belinostat 80 mg/kg i.p. daily from day 8; antibodies 200 μg/mouse i.p.
Description: The Belinostat treatment was formulated every one or two day.
The aPD1 treatment solutions were prepared on the days of the treatment (days 8, 12, 16 and 20).
The aCTLA4 treatment solutions were prepared on days 7, 11, 16 and 20 and stored at 4° C.
4T1 breast cancer cells (5*10^5 cells per Balb/C mouse) were in occulated in the mammary fat gland of Balb/C females. The 4T1 (ATCC CRL-2539) cells were bought from ATCC and cultured in RPMI-1640 Medium containing 10% fetal bovine serum. Cells were passaged 5-10 times before in inoculation. Cells were detached with trypsin, washed twice in PBS, centrifuged and resuspended in PBS. Cell viability was checked by a staining with […] and cells were used when viability was higher than 95%. Cells were counted manually and adjusted to 5*10^6 cells per ml. Finally 100 μl were injected.

[1] = test system: Hepa129 murine hepatocellular carcinoma cells; assay: Antitumor efficacy in subcutaneous Hepa129 hepatocellular carcinoma mouse model; type: in vivo, C3H mice; conditions: s.c. Hepa129 tumors, Beleodaq 90 mg/kg IP daily D7 to D27, antibodies 50 μg/mouse IP D7, D14
Description: As tumor model, Hepa129 murine hepatocellular carcinoma cells implanted subcutaneously in C3H mice were used. Hepa129 cells were maintained in culture up to 3 passages before injection in mice. Cells were sub-cultured three days before the day of injection.
The day of cell injection, Hepa129 cells were harvested and centrifuged at 1800 rpm for 5 min, and resuspended in PBS. Cells were counted in 0.04% Trypan Blue for viability quantification. Cells were resuspended in the adequate volume of PBS in order to have 10^6 cells in 100 μL. […] were subcutaneously injected into the right flank of mice.
When subcutaneous Hepa129 tumors reached a mean tumor diameter of about 5 mm (day 7), mice were allocated to treatment groups and identified individually by ear tags. Beleodaq® was administered IP daily at days 7 to 27 at 90 mg/kg. Antibodies Isotype control (2A3) and anti-CTLA-4 (9D9) (from BioXcell) were administered IP at days 7 and 14.
Treatment allocation were performed as follows for antitumor efficacy study:
Animals were monitored and sacrificed when tumor diameter reached 17 mm. Each experiment was carried out twice with n=8 animals per group.

[2] = test system: irradiated Hepa129 tumor cells; assay: IFN-gamma ELISPOT of spleen cells from treated tumor-bearing mice stimulated with irradiated tumor cells; type: in vivo, C3H mice; conditions: 20-h ELISPOT, two-week treatment, versus the same antibody without Beleodaq
Description: Treatment allocation were performed as follows for immune characterization study:
A single experiment was carried out for each drug, using n=5 animals per group.
Lymphoid organs (spleen, lymph nodes) were obtained from sacrificed animals, homogenized and cell suspensions were used to measure the following parameters:
ELISPOT: measuring the number of IFN-gamma spot forming cells after co-culture of lymphocytes with irradiated Hepa129 tumor cells.
Tumor-bearing mice were treated during two weeks and sacrificed to obtain their spleen and analyze immune-related parameters. For these experiments mice received two antibody administrations (days 0 and 7) and Beleodaq® (daily) during the two-week treatment period.
Functional assays: Spleen cells were stimulated with irradiated tumor cells to analyze antitumor T cell responses measured as IFN-gamma production using a 20-h ELISPOT assay.

## O=C(/C=C/c1cccc(S(=O)(=O)Nc2ccccc2)c1)NO [Beleodaq®, (2E)-N-hydroxy-3-[3-(phenylsulfamoyl)phenyl]prop-2-enamide]
4T1 breast cancer cells
  apparent external tumor size: reduced
  mortality: reduced
[1]
  tumor growth: did not modify
[1]; sacrificed when tumor diameter reached 17 mm
  animal survival: did not modify
[2]
  antitumor T cell responses measured as IFN-gamma production: no significant differences
